The results in this text go back to patent US9340590B2 (priority 2011, dated 2016).

Holding throughout (experiment): cell-based
In one test the target is hNav1.5 (Homo sapiens, UniProt Q14524). The settings on record: IonWorks Quattro, read-out: IWQ Use Nav1.5. Background: The patch-clamp technique gives a direct electrical read-out from membranes.
In the next test the target is hNav1.3 (Homo sapiens, UniProt Q9NY46). The settings on record: IonWorks Quattro, read-out: IWQ Use Nav1.3.
For a further test, the target named is hNav1.7 (Homo sapiens, UniProt Q15858). Format: cell-based. The settings on record: IonWorks Quattro, read-out: IWQ Use Nav1.7.

The structures appear in SMILES notation. Where two headings read alike, the source gives them in different places. Positions of bridges follow the written chain, without caps; N, C: chain ends. Non-standard residues stand in square brackets, D forms with d. Residues, ends and D or L forms follow the SMILES beside them. Gly(octyl) = CCCCCCCC[C@H](N)C(=O)O; Nva = CCC[C@H](N)C(=O)O

Sequence of hNav1.5 (Q14524 whole entry, looked up): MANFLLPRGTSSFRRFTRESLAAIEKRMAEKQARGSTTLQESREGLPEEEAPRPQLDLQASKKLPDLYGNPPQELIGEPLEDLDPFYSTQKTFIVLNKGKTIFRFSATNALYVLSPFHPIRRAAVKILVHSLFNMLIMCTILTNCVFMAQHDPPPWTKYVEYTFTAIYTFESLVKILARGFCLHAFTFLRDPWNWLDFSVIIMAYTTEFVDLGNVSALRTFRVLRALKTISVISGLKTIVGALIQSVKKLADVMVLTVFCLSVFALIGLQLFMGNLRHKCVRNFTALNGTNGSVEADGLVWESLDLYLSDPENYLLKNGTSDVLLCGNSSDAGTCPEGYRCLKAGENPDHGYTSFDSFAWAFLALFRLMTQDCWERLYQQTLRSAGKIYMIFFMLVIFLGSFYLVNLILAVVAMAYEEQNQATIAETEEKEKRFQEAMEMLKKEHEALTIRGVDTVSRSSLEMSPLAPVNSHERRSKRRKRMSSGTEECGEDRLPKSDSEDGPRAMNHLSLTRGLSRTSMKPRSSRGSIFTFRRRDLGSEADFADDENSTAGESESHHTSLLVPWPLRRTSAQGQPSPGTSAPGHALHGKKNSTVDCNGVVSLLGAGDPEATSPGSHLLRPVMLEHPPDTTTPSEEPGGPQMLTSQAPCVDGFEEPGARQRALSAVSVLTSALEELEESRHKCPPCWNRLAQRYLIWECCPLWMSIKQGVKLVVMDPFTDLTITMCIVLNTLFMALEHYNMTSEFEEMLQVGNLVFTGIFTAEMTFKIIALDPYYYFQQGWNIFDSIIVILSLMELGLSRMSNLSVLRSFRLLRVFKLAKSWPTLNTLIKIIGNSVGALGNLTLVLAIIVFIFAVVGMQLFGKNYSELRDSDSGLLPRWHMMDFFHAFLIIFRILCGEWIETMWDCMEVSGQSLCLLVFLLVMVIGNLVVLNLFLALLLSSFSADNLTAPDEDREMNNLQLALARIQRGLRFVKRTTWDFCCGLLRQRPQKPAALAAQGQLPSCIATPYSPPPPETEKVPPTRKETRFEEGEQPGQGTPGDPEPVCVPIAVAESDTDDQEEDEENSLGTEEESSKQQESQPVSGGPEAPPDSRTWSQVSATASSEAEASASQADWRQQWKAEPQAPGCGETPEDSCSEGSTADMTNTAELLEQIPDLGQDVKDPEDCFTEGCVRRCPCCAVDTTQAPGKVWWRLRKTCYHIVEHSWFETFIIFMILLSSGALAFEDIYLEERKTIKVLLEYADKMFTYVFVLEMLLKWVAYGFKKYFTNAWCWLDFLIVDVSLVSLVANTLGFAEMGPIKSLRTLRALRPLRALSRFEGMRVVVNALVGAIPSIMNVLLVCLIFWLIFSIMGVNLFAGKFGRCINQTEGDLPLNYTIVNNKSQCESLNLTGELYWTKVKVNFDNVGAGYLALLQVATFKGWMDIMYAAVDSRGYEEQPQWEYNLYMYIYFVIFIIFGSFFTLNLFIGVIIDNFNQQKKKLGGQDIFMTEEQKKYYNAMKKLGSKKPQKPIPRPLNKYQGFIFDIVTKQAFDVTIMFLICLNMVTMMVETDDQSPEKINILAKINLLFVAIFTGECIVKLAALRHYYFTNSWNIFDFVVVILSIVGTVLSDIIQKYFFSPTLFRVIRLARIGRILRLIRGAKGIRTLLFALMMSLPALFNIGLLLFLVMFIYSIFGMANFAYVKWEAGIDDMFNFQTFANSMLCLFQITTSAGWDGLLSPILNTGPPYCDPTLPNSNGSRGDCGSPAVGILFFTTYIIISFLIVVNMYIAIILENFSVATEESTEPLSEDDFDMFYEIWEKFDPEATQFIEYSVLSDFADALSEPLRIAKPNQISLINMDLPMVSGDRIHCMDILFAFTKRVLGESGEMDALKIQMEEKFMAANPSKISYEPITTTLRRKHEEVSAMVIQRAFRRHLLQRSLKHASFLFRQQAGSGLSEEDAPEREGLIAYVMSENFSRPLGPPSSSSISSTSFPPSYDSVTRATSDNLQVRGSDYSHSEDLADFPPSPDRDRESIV
Sequence of hNav1.3 (Q9NY46 whole entry, looked up): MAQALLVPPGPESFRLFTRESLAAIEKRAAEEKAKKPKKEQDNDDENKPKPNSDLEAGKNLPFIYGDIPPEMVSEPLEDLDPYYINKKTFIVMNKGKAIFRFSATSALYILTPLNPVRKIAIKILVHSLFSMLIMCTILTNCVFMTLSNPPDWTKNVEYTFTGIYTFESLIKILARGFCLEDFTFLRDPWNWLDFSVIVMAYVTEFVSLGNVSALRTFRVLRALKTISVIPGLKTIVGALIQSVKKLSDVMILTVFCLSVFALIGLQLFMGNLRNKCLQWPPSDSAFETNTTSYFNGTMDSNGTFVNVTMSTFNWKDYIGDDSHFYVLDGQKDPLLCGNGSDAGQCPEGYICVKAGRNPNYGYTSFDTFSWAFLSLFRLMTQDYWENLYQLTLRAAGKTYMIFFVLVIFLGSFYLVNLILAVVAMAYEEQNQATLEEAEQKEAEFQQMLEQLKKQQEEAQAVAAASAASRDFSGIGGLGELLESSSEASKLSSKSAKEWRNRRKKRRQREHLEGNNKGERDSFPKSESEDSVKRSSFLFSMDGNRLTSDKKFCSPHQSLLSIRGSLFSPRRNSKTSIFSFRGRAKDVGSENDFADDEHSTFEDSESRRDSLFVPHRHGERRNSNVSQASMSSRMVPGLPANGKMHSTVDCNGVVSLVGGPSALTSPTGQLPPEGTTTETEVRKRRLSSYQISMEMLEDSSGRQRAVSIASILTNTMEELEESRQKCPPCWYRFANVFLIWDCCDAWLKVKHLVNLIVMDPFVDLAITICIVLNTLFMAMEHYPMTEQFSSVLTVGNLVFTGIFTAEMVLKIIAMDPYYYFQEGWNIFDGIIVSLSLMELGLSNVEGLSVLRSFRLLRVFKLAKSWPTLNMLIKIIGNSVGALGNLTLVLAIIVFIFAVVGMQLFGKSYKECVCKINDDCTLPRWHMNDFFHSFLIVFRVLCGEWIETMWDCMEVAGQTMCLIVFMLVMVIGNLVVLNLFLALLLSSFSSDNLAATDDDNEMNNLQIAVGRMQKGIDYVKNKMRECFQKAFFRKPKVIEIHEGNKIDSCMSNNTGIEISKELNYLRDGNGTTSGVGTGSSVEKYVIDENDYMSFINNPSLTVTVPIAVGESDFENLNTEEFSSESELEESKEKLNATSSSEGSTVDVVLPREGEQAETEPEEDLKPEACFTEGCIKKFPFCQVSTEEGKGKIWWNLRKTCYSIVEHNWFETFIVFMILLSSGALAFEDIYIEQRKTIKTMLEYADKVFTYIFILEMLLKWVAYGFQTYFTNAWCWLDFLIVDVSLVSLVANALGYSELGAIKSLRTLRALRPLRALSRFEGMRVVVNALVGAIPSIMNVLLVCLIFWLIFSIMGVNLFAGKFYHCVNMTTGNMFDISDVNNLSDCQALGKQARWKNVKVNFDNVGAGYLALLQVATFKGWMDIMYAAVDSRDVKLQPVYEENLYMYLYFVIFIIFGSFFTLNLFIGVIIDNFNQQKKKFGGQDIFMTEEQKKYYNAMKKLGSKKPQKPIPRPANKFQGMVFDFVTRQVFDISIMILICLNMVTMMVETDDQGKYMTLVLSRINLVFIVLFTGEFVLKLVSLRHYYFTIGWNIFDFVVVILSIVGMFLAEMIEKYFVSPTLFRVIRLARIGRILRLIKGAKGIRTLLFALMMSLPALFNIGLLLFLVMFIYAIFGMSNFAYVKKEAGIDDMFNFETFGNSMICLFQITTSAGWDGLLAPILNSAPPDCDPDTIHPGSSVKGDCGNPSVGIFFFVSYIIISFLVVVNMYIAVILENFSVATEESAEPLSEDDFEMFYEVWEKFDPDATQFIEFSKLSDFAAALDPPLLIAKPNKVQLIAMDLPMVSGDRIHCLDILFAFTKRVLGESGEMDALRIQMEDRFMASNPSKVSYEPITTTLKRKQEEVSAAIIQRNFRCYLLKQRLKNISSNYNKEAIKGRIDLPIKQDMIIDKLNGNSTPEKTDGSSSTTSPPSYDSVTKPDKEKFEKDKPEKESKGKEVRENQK

For `CC[C@H](C)[C@@H]1NC(=O)[C@@H]2CSSC[C@@H]3NC(=O)[C@H](C(C)C)NC(=O)[C@H](CC(C)C)NC(=O)CNC(=O)[C@@H]4CCCN4C(=O)[C@H](CCCNC(=N)N)NC(=O)[C@H](CSSC[C@H](NC(=O)[C@@H](N)CC(=O)O)C(=O)N[C@@H](CC(C)C)C(=O)NCC(=O)N[C@@H](Cc4ccccc4)C(=O)N[C@@H](CCSC)C(=O)N[C@@H](CCCNC(=N)N)C(=O)N[C@@H](CCCCN)C(=O)N2)NC(=O)[C@H](CSSC[C@@H](C(=O)N[C@@H](CCCCN)C(=O)N[C@@H](Cc2ccc(O)cc2)C(=O)N[C@H](C(=O)N[C@@H](Cc2ccccc2)C(N)=O)C(C)C)NC(=O)[C@H](Cc2c[nH]c4ccccc24)NC(=O)[C@H](CCCCN)NC(=O)[C@H](Cc2c[nH]cn2)NC(=O)[C@H]([C@@H](C)O)NC(=O)[C@H](CCCNC(=N)N)NC(=O)[C@H](CO)NC3=O)NC(=O)[C@H](CCCCN)NC(=O)[C@H](CC(=O)O)NC(=O)[C@H](CC(N)=O)NC(=O)[C@H](CC(=O)O)NC(=O)[C@@H]2CCCN2C1=O` [compound 198] (H-DCLGFMRKCIPDNDKCCRPGLVCSRTHKWCKYVF-NH2; disulfide 2-17, 9-23, 16-30), the IC50 on hNav1.5 (Use) stood at 9750 nM; at hNav1.3 (Use) it was 126 nM; on hNav1.7 (Use), 229 nM.

As for `CC[C@H](C)[C@@H]1NC(=O)[C@@H]2CSSC[C@@H]3NC(=O)[C@H](C(C)C)NC(=O)[C@H](CC(C)C)NC(=O)[C@H](CC(N)=O)NC(=O)[C@@H]4CCCN4C(=O)[C@H](CCCNC(=N)N)NC(=O)[C@H](CSSC[C@H](NC(=O)[C@@H](N)CC(=O)O)C(=O)N[C@@H](CC(C)C)C(=O)NCC(=O)N[C@@H](C)C(=O)N[C@@H](CCSC)C(=O)N[C@@H](CCCNC(=N)N)C(=O)N[C@@H](CCCCN)C(=O)N2)NC(=O)[C@H](CSSC[C@@H](C(=O)N[C@@H](CCCCN)C(=O)N[C@@H](Cc2ccc(O)cc2)C(=O)N[C@H](C(=O)N[C@@H](Cc2ccccc2)C(N)=O)C(C)C)NC(=O)[C@H](Cc2c[nH]c4ccccc24)NC(=O)[C@H](CCSC)NC(=O)[C@H](Cc2c[nH]cn2)NC(=O)[C@H]([C@@H](C)O)NC(=O)[C@H](CCCNC(=N)N)NC(=O)[C@H](CO)NC3=O)NC(=O)[C@H](CCCCN)NC(=O)[C@H](CC(=O)O)NC(=O)[C@H](CC(N)=O)NC(=O)[C@H](CC(=O)O)NC(=O)[C@@H]2CCCN2C1=O` [compound 770] (H-DCLGAMRKCIPDNDKCCRPNLVCSRTHMWCKYVF-NH2; disulfide 2-17, 9-23, 16-30), the IC50 was determined as 45400 nM on hNav1.5 (use-dependent block, hNav1.5); 4100 nM at hNav1.3 (use-dependent block, hNav1.3); 1000 nM on hNav1.7 (use-dependent block, hNav1.7).

For the molecule `CC[C@H](C)[C@@H]1NC(=O)[C@@H]2CSSC[C@@H]3NC(=O)[C@H](C(C)C)NC(=O)[C@H](CC(C)C)NC(=O)[C@H](CC(N)=O)NC(=O)[C@@H]4CCCN4C(=O)[C@H](CCCNC(=N)N)NC(=O)[C@H](CSSC[C@H](NC(=O)[C@@H](N)CC(=O)O)C(=O)N[C@@H](CC(C)C)C(=O)NCC(=O)N[C@@H](Cc4ccccc4)C(=O)N[C@@H](CCSC)C(=O)N[C@@H](CCCNC(=N)N)C(=O)N[C@@H](CCCCN)C(=O)N2)NC(=O)[C@H](CSSC[C@@H](C(=O)N[C@@H](CCCCN)C(=O)N[C@@H](CCCCN)C(=O)N[C@H](C(=O)N[C@@H](Cc2ccccc2)C(=O)N[C@@H](Cc2c[nH]c4ccccc24)C(N)=O)C(C)C)NC(=O)[C@H](Cc2c[nH]c4ccccc24)NC(=O)[C@H](CCCCN)NC(=O)[C@H](Cc2c[nH]cn2)NC(=O)[C@H]([C@@H](C)O)NC(=O)[C@H](CCCNC(=N)N)NC(=O)[C@H](CO)NC3=O)NC(=O)[C@H](CCCCN)NC(=O)[C@H](CC(=O)O)NC(=O)[C@H](CC(N)=O)NC(=O)[C@H](CC(=O)O)NC(=O)[C@@H]2CCCN2C1=O` [compound 127] (H-DCLGFMRKCIPDNDKCCRPNLVCSRTHKWCKKVFW-NH2; disulfide 2-17, 9-23, 16-30), the IC50 on hNav1.5 (use-dependent block, hNav1.5) came out at 18900 nM; at hNav1.3 (use-dependent block, hNav1.3) it was 700 nM; on hNav1.7 (use-dependent block, hNav1.7), 730 nM.

In the case of `CC[C@H](C)[C@@H]1NC(=O)[C@@H]2CSSC[C@@H]3NC(=O)[C@H](C(C)C)NC(=O)[C@H](CC(C)C)NC(=O)[C@H](CC(N)=O)NC(=O)[C@@H]4CCCN4C(=O)[C@H](CCCNC(=N)N)NC(=O)[C@H](CSSC[C@H](NC(=O)[C@@H](N)CC(=O)O)C(=O)N[C@@H](CC(C)C)C(=O)NCC(=O)N[C@@H](Cc4ccccc4)C(=O)N[C@@H](CCSC)C(=O)N[C@@H](CCCNC(=N)N)C(=O)N[C@@H](CCCCN)C(=O)N2)NC(=O)[C@H](CSSC[C@@H](C(=O)N[C@@H](CCCCN)C(=O)N[C@@H](Cc2c[nH]c4ccccc24)C(=O)N[C@H](C(=O)N[C@@H](Cc2ccccc2)C(N)=O)C(C)C)NC(=O)[C@H](Cc2c[nH]c4ccccc24)NC(=O)[C@H](CCCNC(=N)N)NC(=O)[C@H](Cc2c[nH]cn2)NC(=O)[C@H]([C@@H](C)O)NC(=O)[C@H](CCCNC(=N)N)NC(=O)[C@H](CO)NC3=O)NC(=O)[C@H](CCCCN)NC(=O)[C@H](CC(=O)O)NC(=O)[C@H](CC(N)=O)NC(=O)[C@H](CC(=O)O)NC(=O)[C@@H]2CCCN2C1=O` [compound 443] (H-DCLGFMRKCIPDNDKCCRPNLVCSRTHRWCKWVF-NH2; disulfide 2-17, 9-23, 16-30), the IC50 at hNav1.5 (use-dependent block, hNav1.5) worked out at 4920 nM; on hNav1.3 (use-dependent block, hNav1.3) it was 70 nM; on hNav1.7 (use-dependent block, hNav1.7) it was 70 nM.

On to `CSCC[C@@H]1NC(=O)[C@H](Cc2ccccc2)NC(=O)CNC(=O)[C@H](CC(C)C)NC(=O)[C@@H](NC(=O)[C@@H](N)CC(=O)O)CSSC[C@@H]2NC(=O)[C@@H]3CSSC[C@@H](C(=O)N[C@@H](CCCCN)C(=O)N[C@@H](Cc4ccc(O)cc4)C(=O)N[C@H](C(=O)N[C@@H](Cc4ccccc4)C(N)=O)C(C)C)NC(=O)[C@H](Cc4c[nH]c5ccccc45)NC(=O)[C@H](CCCCN)NC(=O)[C@H](Cc4c[nH]cn4)NC(=O)[C@H]([C@@H](C)O)NC(=O)[C@H](CCCNC(=N)N)NC(=O)[C@H](CO)NC(=O)[C@H](CSSC[C@H](NC(=O)[C@H](CCCCN)NC(=O)[C@H](CCCNC(=N)N)NC1=O)C(=O)N[C@@H](Cc1c[nH]c4ccccc14)C(=O)N1CCC[C@H]1C(=O)N[C@@H](CC(=O)O)C(=O)N[C@@H](CC(N)=O)C(=O)N[C@@H](CC(=O)O)C(=O)N[C@@H](CCCCN)C(=O)N3)NC(=O)[C@H](C(C)C)NC(=O)[C@H](CC(C)C)NC(=O)[C@H](CC(N)=O)NC(=O)[C@@H]1CCCN1C(=O)[C@H](CCCNC(=N)N)NC2=O` [compound 83] (H-DCLGFMRKCWPDNDKCCRPNLVCSRTHKWCKYVF-NH2; disulfide 2-17, 9-23, 16-30), for which the results for the IC50 on hNav1.5 (Use), on hNav1.3 (Use) and at hNav1.7 (Use) were 8020 nM, 190 nM and 100 nM, respectively.

For `CCCCCCCC[C@@H]1NC(=O)CNC(=O)[C@H](CC(C)C)NC(=O)[C@@H](NC(=O)[C@@H](N)CC(=O)O)CSSC[C@@H]2NC(=O)[C@@H]3CSSC[C@@H](C(=O)N[C@@H](CCCCN)C(=O)N[C@@H](Cc4ccc(O)cc4)C(=O)N[C@H](C(=O)N[C@@H](Cc4ccccc4)C(N)=O)C(C)C)NC(=O)[C@H](Cc4c[nH]c5ccccc45)NC(=O)[C@H](CCCCN)NC(=O)[C@H](Cc4c[nH]cn4)NC(=O)[C@H]([C@@H](C)O)NC(=O)[C@H](CCCNC(=N)N)NC(=O)[C@H](CO)NC(=O)[C@H](CSSC[C@H](NC(=O)[C@H](CCCCN)NC(=O)[C@H](CCCNC(=N)N)NC(=O)[C@H](Cc4ccccc4)NC1=O)C(=O)N[C@@H]([C@@H](C)CC)C(=O)N1CCC[C@H]1C(=O)N[C@@H](CC(=O)O)C(=O)N[C@@H](CC(N)=O)C(=O)N[C@@H](CC(=O)O)C(=O)N[C@@H](CCCCN)C(=O)N3)NC(=O)[C@H](C(C)C)NC(=O)[C@H](CC(C)C)NC(=O)[C@H](CC(N)=O)NC(=O)[C@@H]1CCCN1C(=O)[C@H](CCCNC(=N)N)NC2=O` [compound 608] (H-DCLG[Gly(octyl)]FRKCIPDNDKCCRPNLVCSRTHKWCKYVF-NH2; disulfide 2-17, 9-23, 16-30), the IC50 on hNav1.5 (use-dependent block, hNav1.5) came out at 20200 nM; at hNav1.3 (use-dependent block, hNav1.3), 21800 nM; at hNav1.7 (use-dependent block, hNav1.7), 11300 nM.

As to `CCC[C@@H]1NC(=O)CNC(=O)[C@H](CC(C)C)NC(=O)[C@@H](NC(=O)[C@@H](N)CC(=O)O)CSSC[C@@H]2NC(=O)[C@@H]3CSSC[C@@H](C(=O)N[C@@H](CCCCN)C(=O)N[C@@H](Cc4ccc(O)cc4)C(=O)N[C@H](C(=O)N[C@@H](Cc4ccccc4)C(N)=O)C(C)C)NC(=O)[C@H](Cc4c[nH]c5ccccc45)NC(=O)[C@H](CCCCN)NC(=O)[C@H](Cc4c[nH]cn4)NC(=O)[C@H]([C@@H](C)O)NC(=O)[C@H](CCCNC(=N)N)NC(=O)[C@H](CO)NC(=O)[C@H](CSSC[C@H](NC(=O)[C@H](CCCCN)NC(=O)[C@H](CCCNC(=N)N)NC(=O)[C@H](Cc4ccccc4)NC1=O)C(=O)N[C@@H]([C@@H](C)CC)C(=O)N1CCC[C@H]1C(=O)N[C@@H](CC(=O)O)C(=O)N[C@@H](CC(N)=O)C(=O)N[C@@H](CC(=O)O)C(=O)N[C@@H](CCCCN)C(=O)N3)NC(=O)[C@H](C(C)C)NC(=O)[C@H](CC(C)C)NC(=O)[C@H](CC(N)=O)NC(=O)[C@@H]1CCCN1C(=O)[C@H](CCCNC(=N)N)NC2=O` [compound 606] (H-DCLG[Nva]FRKCIPDNDKCCRPNLVCSRTHKWCKYVF-NH2; disulfide 2-17, 9-23, 16-30), the IC50 at hNav1.5 (use-dependent block, hNav1.5) was 7800 nM; at hNav1.3 (use-dependent block, hNav1.3), 170 nM; on hNav1.7 (use-dependent block, hNav1.7) it was 84 nM.
